According to US20150105252A1, “SUBSTITUTED PYRAZOLES AS HERBICIDES” (E I DU PONT DE NEMOURS AND COMPANY, priority 2013, published 2015):

What was measured:
[1] = tested on: barnyardgrass; experiment: Test A preemergence; format: in vivo, Echinochloa crus-galli; details: preemergence; for Barnyardgrass plant response rating (0 to 100 scale, 0 is no effect, 100 is complete control): visual injury approx. 10 days after treatment
Procedure, shortened: (§1)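 Visual injury ratings, 0 = no effect to 100 = complete control, taken about 10 days after treatment against untreated controls. Test chemicals, in a non-phytotoxic surfactant-containing solvent, were sprayed onto soil preemergence or onto one- to two-leaf plants (2–10 cm) postemergence, in loam–sand soil under greenhouse conditions.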

[2] = tested on: crabgrass, large; experiment: Test A preemergence; format: in vivo, Digitaria sanguinalis; details: preemergence; for Crabgrass, Large plant response rating (0 to 100 scale): 125 g ai/ha, visual injury approx. 10 days after treatment; for Crabgrass, Large plant response rating: 500 g ai/ha, visual injury after approx. 10 days, 0 to 100 scale (0 no effect, 100 complete control)
Procedure, shortened: as §1

[3] = tested on: foxtail, giant; experiment: Test A preemergence; format: in vivo, Setaria faberii; details: preemergence; for Foxtail, Giant plant response rating (0 to 100 scale): 125 g ai/ha, visual injury approx. 10 days after treatment; for Foxtail, Giant plant response rating: 500 g ai/ha, visual injury after approx. 10 days, 0 to 100 scale (0 no effect, 100 complete control)
Procedure, shortened: as §1

[4] = tested on: morningglory; experiment: Test A preemergence; format: in vivo, Ipomoea spp.; details: preemergence; for Morningglory plant response rating (0 to 100 scale): 125 g ai/ha, visual injury approx. 10 days after treatment; for Morningglory plant response rating: 500 g ai/ha, visual injury after approx. 10 days, 0 to 100 scale (0 no effect, 100 complete control)
Procedure, shortened: as §1

[5] = tested on: pigweed; experiment: Test A preemergence; format: in vivo, Amaranthus retroflexus; details: preemergence; for Pigweed plant response rating (0 to 100 scale): 125 g ai/ha, visual injury approx. 10 days after treatment; for Pigweed plant response rating: 500 g ai/ha, visual injury after approx. 10 days, 0 to 100 scale (0 no effect, 100 complete control)
Procedure, shortened: as §1

[6] = tested on: velvetleaf; experiment: Test A preemergence; format: in vivo, Abutilon theophrasti; details: preemergence; for Velvetleaf plant response rating (0 to 100 scale): 125 g ai/ha, visual injury approx. 10 days after treatment; for Velvetleaf plant response rating: 500 g ai/ha, visual injury after approx. 10 days, 0 to 100 scale (0 no effect, 100 complete control)
Procedure, shortened: as §1

[7] = tested on: wheat; experiment: Test A preemergence; format: in vivo, Triticum aestivum; details: preemergence; for Wheat plant response rating (0 to 100 scale): 125 g ai/ha, visual injury approx. 10 days after treatment; for Wheat plant response rating: 500 g ai/ha, visual injury after approx. 10 days, 0 to 100 scale (0 no effect, 100 complete control)
Procedure, shortened: as §1

[8] = tested on: corn; experiment: Test A preemergence; format: in vivo, Zea mays; details: preemergence; for Corn plant response rating (0 to 100 scale): 125 g ai/ha, visual injury approx. 10 days after treatment; for Corn plant response rating: 500 g ai/ha, visual injury after approx. 10 days, 0 to 100 scale (0 no effect, 100 complete control)
Procedure, shortened: as §1

[9] = tested on: barnyardgrass; experiment: Test A postemergence; format: in vivo, Echinochloa crus-galli
Procedure, shortened: as §1

[10] = tested on: crabgrass, large; experiment: Test A postemergence; format: in vivo, Digitaria sanguinalis
Procedure, shortened: as §1

[11] = tested on: foxtail, giant; experiment: Test A postemergence; format: in vivo, Setaria faberii
Procedure, shortened: as §1

[12] = tested on: morningglory; experiment: Test A postemergence; format: in vivo, Ipomoea spp.
Procedure, shortened: as §1

[13] = tested on: pigweed; experiment: Test A postemergence; format: in vivo, Amaranthus retroflexus
Procedure, shortened: as §1

[14] = tested on: velvetleaf; experiment: Test A postemergence; format: in vivo, Abutilon theophrasti
Procedure, shortened: as §1

[15] = tested on: wheat; experiment: Test A postemergence; format: in vivo, Triticum aestivum
Procedure, shortened: as §1

[16] = tested on: corn; experiment: Test A postemergence; format: in vivo, Zea mays
Procedure, shortened: as §1

[17] = tested on: rice; experiment: Test B flood; format: in vivo, Oryza sativa; details: 250 g ai/ha, visual rating on 0 to 100 scale (0 no effect, 100 complete control), 13 to 15 days
Procedure, shortened: (§2)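 2-leaf plants; pots flooded 3 cm over soil; compound added to paddy water, depth kept constant. Greenhouse 13–15 d. Visual rating vs controls, 0–100 scale (100 = complete control); dash = no result.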

[18] = tested on: sedge, umbrella; experiment: Test B flood; format: in vivo, Cyperus difformis; details: 250 g ai/ha, visual rating on 0 to 100 scale (0 no effect, 100 complete control), 13 to 15 days
Procedure, shortened: as §2

[19] = tested on: ducksalad; experiment: Test B flood; format: in vivo, Heteranthera limosa; details: 250 g ai/ha, visual rating on 0 to 100 scale (0 no effect, 100 complete control), 13 to 15 days
Procedure, shortened: as §2

[20] = tested on: barnyardgrass; experiment: Test B flood; format: in vivo, Echinochloa crus-galli; details: 250 g ai/ha, visual rating on 0 to 100 scale (0 no effect, 100 complete control), 13 to 15 days
Procedure, shortened: as §2

[21] = 500 g ai/ha, visual injury after approx. 10 days, 0 to 100 scale (0 no effect, 100 complete control)
[22] = Postemergence, 500 g ai/ha, 0 to 100 scale (0 no effect, 100 complete control)
[23] = postemergence, 125 g ai/ha, about 10 days, visual rating on 0 to 100 scale (0 no effect, 100 complete control)
[24] = Postemergence, 125 g ai/ha, 0 to 100 scale, 0 no effect, 100 complete control

Row | Compound | Barnyardgrass plant response rating [1, 21] | Crabgrass, Large plant response rating (0 to 100 scale) [2] | Crabgrass, Large plant response rating [2] | Foxtail, Giant plant response rating (0 to 100 scale) [3] | Foxtail, Giant plant response rating [3] | Morningglory plant response rating (0 to 100 scale) [4] | Morningglory plant response rating [4] | Pigweed plant response rating (0 to 100 scale) [5] | Pigweed plant response rating [5] | Velvetleaf plant response rating (0 to 100 scale) [6] | Velvetleaf plant response rating [6] | Wheat plant response rating (0 to 100 scale) [7] | Wheat plant response rating [7] | Corn plant response rating (0 to 100 scale) [8] | Corn plant response rating [8] | Barnyardgrass plant response rating [9, 22] | Barnyardgrass plant response rating [9, 23] | Crabgrass, Large plant response rating [10, 22] | Crabgrass, Large plant response rating [10, 23] | Foxtail, Giant plant response rating [11, 22] | further results
1 | O=C(NC1CC1)c1cc(Cl)n(Cc2cccc(C(F)(F)F)c2)n1 [Compound 174] | 0 | 10 | 40 | 0 | 20 | 0 | 0 | 20 | 90 | 0 | 0 | 0 | 0 | 0 | 0 | 10 | 0 | 10 | 0 | 0 | Barnyardgrass plant response rating ([1]; 125 g ai/ha, visual injury, 0 to 100 scale, approx. 10 days): 0; Foxtail, Giant plant response rating [11, 23]: 0; Morningglory plant response rating [12, 22]: 10; Morningglory plant response rating [12, 23]: 0; Pigweed plant response rating [13, 22]: 90; Pigweed plant response rating [13, 23]: 20; Velvetleaf plant response rating [14, 22]: 10; Velvetleaf plant response rating [14, 23]: 0; Wheat plant response rating [15, 22]: 0; Wheat plant response rating [15, 23]: 0; Corn plant response rating [16, 22]: 10; Corn plant response rating [16, 23]: 0; Plant response rating, Rice [17]: 0; Plant response rating, Sedge, Umbrella [18]: 0; Plant response rating, Ducksalad [19]: 0; Plant response rating, Barnyardgrass [20]: 0
2 | O=C(NCC(F)(F)F)c1cc(I)n(Cc2cccc(C(F)(F)F)c2)n1 [Compound 181] | 10 | 10 | 60 | 0 | 20 | 0 | 0 | 10 | 50 | 0 | 0 | 0 | 0 | 0 | 0 | 10 | 10 | 10 | 10 | 10 | Barnyardgrass plant response rating (0 to 100 scale, 0 is no effect, 100 is complete control) ([1]; 125 g ai/ha): 0; Foxtail, Giant plant response rating [11, 23]: 0; Morningglory plant response rating [12, 22]: 80; Pigweed plant response rating [13, 22]: 100; Velvetleaf plant response rating [14, 22]: 20; Wheat plant response rating [15, 22]: 0; Corn plant response rating [16, 22]: 20; Corn plant response rating [16, 23]: 0; Plant response rating, Rice [17]: 20; Plant response rating, Sedge, Umbrella [18]: 40; Plant response rating, Ducksalad [19]: 0; Plant response rating, Barnyardgrass [20]: 0
3 | CCCNC(=O)c1cc(I)n(Cc2cccc(C(F)(F)F)c2)n1 [Compound 183] | 10 | 10 | 80 | 10 | 50 | 0 | 0 | 10 | 50 | 0 | 0 | 0 | 0 | 0 | 0 | 20 | 10 | 20 | 10 | 20 | Barnyardgrass plant response rating (0 to 100 scale, 0 is no effect, 100 is complete control) ([1]; 125 g ai/ha): 0; Foxtail, Giant plant response rating [11, 23]: 10; Morningglory plant response rating [12, 24]: 10; Morningglory plant response rating [12, 22]: 90; Pigweed plant response rating [13, 24]: 90; Pigweed plant response rating [13, 22]: 80; Velvetleaf plant response rating [14, 24]: 10; Velvetleaf plant response rating [14, 22]: 40; Wheat plant response rating [15, 24]: 0; Wheat plant response rating [15, 22]: 0; Corn plant response rating [16, 22]: 10; Corn plant response rating [16, 23]: 0; Plant response rating, Rice [17]: 0; Plant response rating, Sedge, Umbrella [18]: 0; Plant response rating, Ducksalad [19]: 0; Plant response rating, Barnyardgrass [20]: 0
4 | CCCCc1cc(C(=O)NCCC)nn1Cc1ccnc(C(F)(F)F)c1 [Compound 190] | 60 | 80 | 100 | 20 | 90 | 0 | 30 | 100 | 100 | 0 | 20 | 0 | 0 | 0 | 0 | 60 | 10 | 70 | 20 | 60 | Barnyardgrass plant response rating (0 to 100 scale, 0 is no effect, 100 is complete control) ([1]; 125 g ai/ha): 0; Foxtail, Giant plant response rating [11, 23]: 20; Morningglory plant response rating [12, 24]: 100; Morningglory plant response rating [12, 22]: 90; Pigweed plant response rating [13, 24]: 100; Pigweed plant response rating [13, 22]: 90; Velvetleaf plant response rating [14, 24]: 100; Velvetleaf plant response rating [14, 22]: 80; Wheat plant response rating [15, 24]: 80; Wheat plant response rating [15, 22]: 10; Corn plant response rating [16, 22]: 40; Corn plant response rating [16, 23]: 10; Plant response rating, Rice [17]: 0; Plant response rating, Sedge, Umbrella [18]: 45; Plant response rating, Ducksalad [19]: 0; Plant response rating, Barnyardgrass [20]: 0
